These results are taken from PubChem BioAssay (NCI).

What all share (test): NCI tumour cell line growth inhibition, 48 h
Assay [1] deals with LXFL 529 NSCLC.
Assay [2] concerns RXF-631 renal.
Assay [3] has as its system KM20L2 colon.
Assay [4] concerns DLD-1 colon.
The test system of assay [5] is HOP-18 NSCLC.
Assay [6] has as its system DMS 114 small cell lung.
The subject of assay [7] is XF 498 CNS.
The subject of assay [8] is MDA-N.
For assay [9], the system named is T-47D breast.
In assay [10] the test system is P388 leukemia.
In assay [11] the test system is P388/ADR leukemia.
In assay [12] the test system is SN12K1 renal.

“And” between values parts separate entries of the source, which are not always exact repeats. Identical values can stand only once.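 Test compounds were applied to cells in 96-well plates for 48 hours at 5 doses. The concentration for 50% growth inhibition is given as GI50. The concentration for full growth arrest is given as TGI.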

As for `Cc1cccc(C(C)C)c1N1C(=O)C(=O)C(c2nc3ccccc3o2)C(=O)C1=O`, the TGI in [1] was more than 100 µM; in [2], more than 100 µM; in assay [3], more than 100 µM; in assay [4], more than 100 µM; in [5] it was more than 100 µM; in assay [6], 75.8 µM. Also, the TGI in [7] amounted to 69.1 µM.

With `Nc1c(O)cc(N=C2C(=O)C=CC=C2C(=O)O)c(O)c1C(=O)O`, the TGI in assay [1] was more than 100 µM; in assay [2], more than 100 µM; in [3], more than 100 µM; in assay [4] it was more than 31.6 µM; in assay [5], more than 100 µM; in assay [6] it was more than 100 µM. The molecule also had a TGI in assay [7] of more than 100 µM.

As to `N#CC1CCCCOCCOCCOCCOCCOCCCCCC1=O` (stereo unspecified), the TGI in assay [1], in assay [2], in [3], in assay [4], in assay [5] and in [6] was more than 100 µM each time.

Turning to `CN(C)C(=Nc1nc(=[N+](C)C)ss1)N(C)C`, the TGI in assay [1], in assay [2], in assay [3], in assay [4], in [5] and in [6] was more than 100 µM throughout. In [7], this molecule displayed a TGI of more than 100 µM.

On to `ON(Cc1ccccc1)C(=S)c1ccccc1`, for which the TGI in assay [1], in [2], in [3], in assay [4], in [8] and in assay [9] was more than 100 µM throughout. Besides, the TGI was more than 100 µM in assay [5], 9.55 µM in assay [6] and more than 100 µM in assay [7].

Take `CN=C(NC(=S)N(C)C)N(C)C`: the TGI in assay [1], in assay [2], in assay [3], in [4], in assay [5] and in [6] was more than 100 µM throughout. In [7], this molecule displayed a TGI of more than 100 µM.

For the molecule `O=S(=O)(O)c1ccc(N=Nc2nc(C(F)(F)F)c(C(F)(F)F)[nH]2)cc1`, the TGI was more than 100 µM in [1]; more than 100 µM in [2]; more than 100 µM in assay [3]; more than 100 µM in [4]; more than 100 µM in [5]; 30.5 µM in [6]. Besides, in assay [7], the TGI amounted to 41.1 µM.

With `COc1cc(NS(C)(=O)=O)ccc1Nc1c2ccccc2nc2ccccc12`, the TGI in assay [10] is 0.391 µM; in [1], 17.9 µM and 22.7 µM and 8.92 µM; in [2] it was 4.3 µM and 2.93 µM and 5.34 µM; in assay [11], 5.51 µM; in assay [3], 12.1 µM and 15.3 µM and 5.78 µM; in [4], 16.2 µM and 35.1 µM and 7.54 µM. Moreover, the TGI is 7.41 µM and 16.6 µM and 11.5 µM in assay [8]; 5.23 µM and 3.51 µM in [5]; 4.04 µM in [12]; 6.54 µM and 1.52 µM and 4.56 µM in assay [6]. Besides, the GI50 was 5.37 µM and 5.42 µM in assay [1]; 0.388 µM and 0.431 µM in [2]; 2.18 µM and 3.41 µM in assay [3]; 3.58 µM and 15.3 µM in assay [4]; 4 µM in assay [8]; 0.878 µM in assay [5]. In assay [6], the GI50 was 0.114 µM and 0.0981 µM.

For the molecule `CCCCC(C)C(OC(=O)CC(CC(=O)O)C(=O)O)C(CC(C)CC(O)CCCCC(O)CC(O)C(C)N)OC(=O)CC(CC(=O)O)C(=O)O` (stereo unspecified), the TGI in [1], in assay [2], in assay [3], in [4], in [5] and in assay [7] was more than 100 µM throughout.

`O=C(CCC(=O)Nc1ccc(Cl)c(Cl)c1)CC(=O)c1ccc(F)cc1`: the TGI in assay [1], in assay [2], in assay [3], in [4], in assay [5] and in assay [6] was more than 100 µM in each case.

As for `CCOc1ccc2c(c1)[n+]([O-])c(-c1ccc(Br)cc1)c(N)[n+]2[O-]`, the TGI in assay [1], in assay [2], in [3], in assay [4], in [5] and in [6] was more than 100 µM each time. The molecule further had a TGI in assay [7] of more than 100 µM.

Consider `O=[N+]([O-])c1ccc(C2CC(c3ccccc3Cl)=Nc3ccccc3S2=O)cc1` (stereo unspecified), for which the TGI was 3.54 µM in assay [1]; 21.5 µM in assay [2]; 7.04 µM in assay [3]; 4.1 µM in assay [4]; 21.8 µM in [8]; 44.2 µM in [9]. Also, the results for the TGI in assay [5], in assay [6] and in assay [7] were 39.5 µM, 4.36 µM and 18.4 µM, respectively.

As to `COC(=O)C1=C(c2ccc(OC)c(OC)c2)OC(c2cc(OC)c(OC)c(OC)c2)C1` (stereo unspecified), the TGI in assay [1], in [2], in [3], in assay [4], in assay [5] and in assay [6] was more than 100 µM in each case. Also, the TGI in [7] is more than 100 µM.

Turning to `O=C1NC(=O)C(=Nc2cccc3c(=O)[nH][nH]c(=O)c23)C(c2nc3ccccc3s2)C1=O` (stereo unspecified), the TGI in [1], in assay [2], in assay [3], in [4], in assay [5] and in assay [6] was more than 100 µM each time. The TGI in [7] is more than 100 µM.

Regarding `CN(C)c1nnnn1-c1c(N)n(C)c(=O)n(C)c1=O`, the TGI in assay [1], in assay [2], in [3], in assay [4], in assay [5] and in assay [6] was more than 100 µM each time. This molecule also registered a TGI in assay [7] of more than 100 µM.
